This is an account of results in patent US20190322960A1, “FRAGRANCE COMPOSITIONS AND METHODS OF USE THEREOF” (TAKASAGO INTERNATIONAL CORPORATION, priority 2016, published 2019).

The subject of test [1] is salivary cortisol. Briefly: Stress test (timed mathematical and word test), salivary cortisol of panelists exposed to fragrance. The settings on record: for effect on salivary cortisol levels as compared to the control (in words): exposed panelists, stress test; for % Change in Cortisol (i.e., before versus after stress): panelists exposed during stress test, saliva before and immediately after stress test, DPG solvent, DPG control 10.8%. The class given is in vivo, human. As to the method: (§1) Stress was induced in each panelist using a timed mathematical and word test, which was administered to panelists in a small group competition setting to induce stress in each of the panelists. At set time intervals during the test, each panelist was exposed to either a single fragrance compound or to a DPG control.
(§2) Saliva was collected for each panelist before and immediately after the stress test. Saliva samples were assayed for salivary alpha-amylase activity and salivary cortisol levels using a commercially available assay kit (e.g., Salimetrics®).
Table 1-B summarizes the percent change (i.e., before stress versus after stress) in the salivary cortisol levels of panelists exposed to fragrance compounds of the present disclosure during the stress test. In addition, the table illustrates the statistical significance of the change in salivary cortisol levels (i.e., p-value or probability value, P) of each of the fragrance compounds as compared to DPG, representing the change in the control (i.e., just DPG without a fragrance compound before stress and after stress).
(§3) Saliva was collected before and immediately after the stress test. Saliva samples were assayed for salivary alpha-amylase activity and salivary cortisol levels using a commercially available assay kit (e.g., Salimetrics®).
Table 5-B summarizes the percent change (i.e., before stress versus after stress) in the salivary cortisol levels of panelists exposed to fragrance compounds of the present disclosure during the stress test. In addition, the table illustrates the statistical significance of the change in salivary cortisol levels (i.e., p-value or probability value, P) of each of the fragrance compounds as compared to DPG, representing the change in the control (i.e., just DPG without a fragrance compound before stress and after stress).

In test [2] the test system is salivary alpha-amylase. Briefly: Stress test (timed mathematical and word test), salivary alpha-amylase of panelists exposed to fragrance. It counts as in vivo, human. The settings on record: for effect on salivary alpha-amylase levels as compared to the DPG control (in words): exposed panelists, stress test; for % Change in Alpha-amylase (i.e., before versus after stress): panelists exposed during stress test, saliva before and immediately after stress test, DPG solvent, DPG control 51.9%. As to the method: as §1, §2
Table 1-A summarizes the percent change (i.e., before stress versus after stress) in the salivary alpha-amylase levels of panelists exposed to fragrance compounds of the present disclosure during the stress test. In addition, the table illustrates the statistical significance of the change in alpha-amylase levels (i.e., p-value or probability value, P) of each of the fragrance compounds as compared to DPG, representing the change in the control (i.e., just DPG without a fragrance compound before stress and after stress).
as §3
Table 5-A summarizes the percent change (i.e., before stress versus after stress) in the salivary alpha-amylase levels of panelists exposed to fragrance compounds of the present disclosure during the stress test. In addition, the table illustrates the statistical significance of the change in alpha-amylase levels (i.e., p-value or probability value, P) of each of the fragrance compounds as compared to DPG, representing the change in the control (i.e., just DPG without a fragrance compound before stress and after stress).

Turning to `CC1=CCC(C(C)CC2CCCC2=O)CC1` (centres unmarked) [2-(2-(4-methyl-3-cyclohexen-1-yl)propyl)cyclopentanone], in test [1], the “effect on salivary cortisol levels as compared to the control (in words)” value is given as “the levels of salivary cortisol were limited” and the “% Change in Cortisol (i.e., before versus after stress)” value (from here on “% Change in Cortisol”) is given as −10.6%. Moreover, in test [2], the “effect on salivary alpha-amylase levels as compared to the DPG control (in words)” value (shortened to “effect … compared to the DPG control (in words)”) is “limited the increase in salivary alpha-amylase levels” and the “% Change in Alpha-amylase (i.e., before versus after stress)” value (“% Change in Alpha-amylase” for short) amounted to 33.5%.

Take `C=C(C)[C@H]1CC=C(C)CC1` [Limonene, limonene]: the “% Change in Cortisol” value in test [1] is 21.05%. In test [2], the “effect … compared to the DPG control (in words)” value is given as “limited the increase in salivary alpha-amylase levels” and the “% Change in Alpha-amylase” value was −15.9%.

In the case of `CC(=O)OC(C)(C)C1CC=C(C)CC1` (centres unmarked) [Terpinyl Acetate, terpinyl acetate], in test [1], the “effect on salivary cortisol levels as compared to the control (in words)” value is recorded as “the levels of salivary cortisol were limited” and the “% Change in Cortisol” value is −9.1%. Moreover, in test [2], the “effect … compared to the DPG control (in words)” value was “limited the increase in salivary alpha-amylase levels” and the “% Change in Alpha-amylase” value is 16.5%.
